Measured values reported in PMC9302014, “PEGylation improves the therapeutic potential of dimerized translationally controlled tumor protein blocking peptide in ovalbumin-induced mouse model of airway inflammation” (Drug Delivery, 2022).

Test system: OVA-induced allergic airway inflammation
Experiment: Mouse model of OVA-induced allergic airway inflammation
Type: in vivo
Details: single 1 mg/kg intraperitoneal on day 32, n = 10-12
Protocol: Sixty female BALB/c mice, 6–7 weeks of age, were randomly divided into five groups (12 mice per group) and intraperitoneally sensitized on days 1 and 14 with 50 μg OVA emulsified in 2 mg aluminum hydroxide in a total volume of 200 μl. The control group of naïve mice received the same volume of PBS for the duration of the experiment. Two weeks after the second sensitization, the animals were challenged with 200 μg of OVA through intranasal administration under light anesthesia on days 28, 30, 32, and 34. […]. On day 35, the mice were sacrificed and BALF, lung tissue, and serum were collected for further analysis.
Mice were anesthetized, and the trachea was excised, and cannulated with a polyethylene tube. The lungs were lavaged with 0.8 ml of PBS four times, and 0.6 ml of BALF was obtained. The collected lavage fluid was cooled on ice and centrifuged at 1,000 rpm for 10 min at 4 °C. The supernatant was used for ELISA assays. The pellets were resuspended in 0.1 ml PBS, and the total inflammatory cell numbers were quantified using a Hemavet (Drew Scientific Inc., Oxford, CT).
After lavage, the right lung lobe was isolated and stored at −80 °C until required. The lung tissue was homogenized in 50 mM Tris-HCl buffer (pH 7.4) containing 150 mM NaCl, 1 mM EDTA, 0.25% deoxycholate, and a protease inhibitor (Sigma) using a tissuelyser II (Qiagen). The lung homogenates were centrifuged at 10,000 × g for 10 min, and the supernatants were collected and used for ELISA assay.
The left lung lobe was fixed in 4% formaldehyde, embedded in paraffin, and sectioned at a thickness of 4 μm. The sections were stained with hematoxylin and eosin (H&E) to detect infiltration of inflammatory cells and with periodic acid-Schiff (PAS) staining for the analysis of goblet cells hyperplasia/mucus production. The H&E stained sections were scored for the presence of inflammatory cells using the following scale: (0) = absent, (1) = rare, (2) = mild, (3) = moderate, (4) = severe. Scoring was performed by 6 observers in a blinded manner. Also, the area of H&E stained cells was quantified in the selected field, and the area of PAS-positive cells per bronchiole was expressed as the % of the total epithelial area using ImageJ software (National Institute of Health, Bethesda, MD).
Statistical analysis was performed using GRAPHPAD^TM PRISM version 8.0 for Windows (GraphPad Software, San Diego, CA). Statistical significance was determined using Student’s two-tailed unpaired t-test for comparisons between two groups. For more than 3 groups, a one-way analysis of variance (ANOVA) was followed by Tukey’s test. Error bars were expressed as the mean ± the standard error of the mean (SEM) of 10 to 12 mice per group. Significant differences between means were defined as p < 0.05.

## C[C@@H]1C[C@H]2[C@@H]3CCC4=CC(=O)C=C[C@]4(C)[C@@]3(F)[C@@H](O)C[C@]2(C)[C@@]1(O)C(=O)CO [Dex, dexamethasone]
ELISA
  levels of IL-4, IL-5, and IL-13 in lung homogenates increased by OVA challenge: suppressed
  number of lymphocytes in BALF compared to the OVA group: did not significantly suppress
  number of monocytes in BALF compared to the OVA group: did not significantly suppress
  number of total cells (total leukocytes) in BALF compared to the OVA-challenged group: no difference
